# Reference: patent US8507219B2, “Method of treating inflammation with statins” (MUSC Foundation for Research Development, priority 1997, dated 2013)
# “And” between values parts separate entries of the source, which are not always exact repeats. Identical values can stand only once.
# Assays:
# [1] = system: TNF-α production in rat primary astrocytes; experiment: LPS-induced TNF-α production (ELISA) in rat primary astrocytes; format: cell-based
# Experimental: (§1) Determination of TNF-α and IL-1β in culture supernatants Cells were stimulated with LPS in serum-free media for 24 h in the presence or absence of forskolin or rolipram, and concentrations of TNF-α and IL-1β were measured in culture supernatants by using high-sensitivity enzyme-linked immunosorbent assay (R&D Systems, USA) according to the manufacturer's instructions.
# [2] = system: IL-1β production in rat macrophages; experiment: LPS-induced IL-1β production (ELISA) in rat macrophages; format: cell-based
# [3] = system: IL-1β production in rat primary microglia; experiment: LPS-induced IL-1β production (ELISA) in rat primary microglia; format: cell-based
# Experimental: as §1
# IFN-γ = experiment: Immunohistochemistry of IFN-γ in brain sections of EAE rats; format: in vivo, Lewis rats; details: rat, in vivo, ip
# Experimental: (§2) One group of animals induced for EAE was left untreated while another group of animals was not induced for EAE and used as the control group.
# (§3) Immunohistochemistry Brains were fixed in 10% buffered formalin (Stephens Scientific, Riverdale, N.J.). The tissues were embedded in paraffin and sectioned at 4 μm. Sections were then stained for various cytokines and cell markers as described below. For single-label immunohistochemistry, sections were incubated with either anti-iNOS antibody (1:100, rabbit polyclonal, Calbiochem, LaJolla, Calif.) or anti-TNF-α antibody (1:100, rabbit polyclonal, Genzyme, Cambridge, Mass.) or anti-IFN-γ antibody (1:200, rabbit polyclonal, Biosource International, Camarillo, Calif.) essentially as described for other antibodies (Hooper et al., 1997). The tissue sections were further incubated with FITC conjugated anti-rabbit IgG (1:100, Sigma, St. Louis, Mo.), mounted with mounting media (EMS) and analyzed by immunofluorescence microscopy (Olympus) using Adobe photoshop software. For immunofluorescent double-labeling, sections were incubated first with anti-iNOS (1:100) followed by macrophage marker ED1 (1:100, mouse monoclonal, Biosource International, Camarillo, Calif.). Anti-iNOS was visualized using TRITC conjugated anti-rabbit IgG—(1:100, Sigma, St. Louis, Mo.) and ED1 using FITC conjugated anti-mouse IgG (1:100, Sigma, St. Louis, Mo.). […]
# iNOS gene = iNOS gene transcription (nuclear run-on assay) in rat primary astrocytes; format: cell-based
# Experimental: […]. In brief, the filters were prehybridized in 1 ml of hybridization buffer (50% formamide, 5×SSC, 1% SDS, 15% dextran sulfate, 1×Denhardt's solution, and 50 μg/ml heparin). After 24 h of prehybridization in the above buffer, hybridization was carried out with the labeled RNAs (1.3×10^5 cpm) at 42° C. for 60 h to 3 μg of the immobilized plasmid pGEM-T as a control, or to plasmids containing inserts of rat glyceraldehyde-3-phosphate dehydrogenase, rat actin, and human iNOS cDNAs. The filters were washed twice in 2×SSC, 0.1% SDS for 15 min at […], and twice in 0.5×SSC, 0.1% SDS for 15 min. Then the filters were treated with RNase buffer (300 mM NaCl, 10 mM TrisHCI, pH 7.4, 40 mM EDTA, 10 μg/ml RNase A, and 350 U/ml RNase T1) at 37° C. for 30 min, in the same buffer without RNases for another 30 min, and were then autoradiographed.
# TNF-α = format: in vivo, Lewis rats; details: rat, in vivo, ip
# Experimental: as §2, §3
# [4] = system: TNF-α production in rat primary microglia; experiment: LPS-induced TNF-α production (ELISA) in rat primary microglia; format: cell-based
# Experimental: as §1
# [5] = system: cultured skin fibroblasts of X-ALD; experiment: β-oxidation of lignoceric acid in cultured skin fibroblasts of X-ALD; format: cell-based, human
# [6] = system: TNF-α production in rat resident macrophages; experiment: LPS-/IFN-γ-induced TNF-α production (ELISA) in rat macrophages; format: cell-based
# [7] = system: NO production in rat primary microglia; experiment: LPS-induced NO production (nitrite) in rat primary microglia; format: cell-based
# [8] = system: cultured skin fibroblasts of X-ALD; experiment: VLCFA ratios (C26:0/C22:0, C24:0/C22:0) in X-ALD skin fibroblasts; format: cell-based, human
smiles,measurement,setting,value
"O=C([O-])Cc1ccccc1.[Na+] [NaPA, sodium salt of phenylacetic acid]",Production of TNF-α,[1],0.4 ± 0.06 ng/24 h/mg protein
same,Production of IL-1β,[2],3.1 ± 0.4 ng/24 h/mg protein and 3.1 ± .4 ng/24 h/mg protein
same,Production of IL-1β,[3],2.4 ± 0.2 ng/24 h/mg protein
same,expression of IFN-γ in EAE brain,IFN-γ,blocked the induction of IFN-γ
same,LPS-induced nuclear transcription of the iNOS gene,iNOS gene,inhibited the relative rate of LPS-induced nuclear transcription of the iNOS gene
same,expression of TNF-α in EAE brain,TNF-α,blocked the induction of TNF-α
same,Production of TNF-α,[4],1.3 ± 0.2 ng/24 h/mg protein
same,Lignoceric acid β-oxidation,[5],211.5 ± 22.6 pmol/h/mg protein and 189.7 ± 21.2 pmol/h/mg protein and 183.2 ± 17.3 pmol/h/mg protein and 178.9 ± 18.3 pmol/h/mg protein and 202.5 ± 17.4 pmol/h/mg protein
same,stimulation of lignoceric acid β-oxidation,[5],40%
same,Production of TNF-α,[6],1.7 ± 0.2 ng/24 h/mg protein
same,Production of NO,[7],6.9 ± 0.9 nmol/24 h/mg protein
same,ratios of C26:0/C22:0 and C24:0/C22:0 / level of VLCFA,[8],almost to the normal level after 15 days of treatment
